Results on 12 compounds are retold here after US8178727B2, “Bis(arylmethylidene)acetone compound, anti-cancer agent, carcinogenesis-preventive agent, inhibitor of expression of Ki-Ras, ErbB2, c-Myc and Cycline D1, β-catenin-degrading agent, and p53 expression enhancer” (National University Corporation Tohoku University, priority 2005, dated 2012).

A value given as a limit tells only on which side of the number the result lay.

In general, melting point refers to the temperature, or range, at which the solid turns liquid. The IC50 is the concentration that gives 50% inhibition. High values mean a need for much substance, low ones inhibition by little substance.

The subject of one data set is SW620 cells. Description: Cell growth inhibition (Cell Counting Kit 8, Wst-8), 96 h exposure. In kind it is cell-based. The settings on record: Homo sapiens, SW-620, SW620 colon cancer cells. On the procedure:
(§1) The inhibitory efficacy of bis(arylmethylidene)-acetones on the development and growth of malignant tumor cells was examined. Curcumin and bis(arylmethylidene)-acetone compounds were dissolved in DMSO to obtain 50 mM compound solutions for storage. Sixteen human cancer cell lines (HCT116, DLD-1, SW620. LK87, PC3, MCF7, PK9, HuCCT-1, SH10TC, GCIY, G361, 8505c, HepG2, A431, ACHN, OVK18) were obtained from the Medical Cellular Resources Center of the Institute of Development, Aging, and Cancer at Tohoku University, Japan. These cells were cultured at 37° C. under 5% CO2 conditions using as a culture medium RPMI1640 (Sigma Aldrich) supplemented with 10% fetal bovine serum and kanamycin (Wako Pure Chemical Industries: final concentration, […]).
(§2) Three human colon-cancer cell lines (DLD-1, HCT116, SW620) were used in screening for cell growth inhibitory efficacy. The test compounds (bis(arylmethylidene)-acetones) were added to the culture media at the target concentrations, and exposure to the compounds was then continued for 96 hours in order to investigate not only acute cell damages but also effects on the cells, involving intracellular metabolic responses and others. The cell growth inhibitory efficacy was then evaluated with Cell Counting Kit 8 (Wst-8 Test, Dojindo Laboratories, Japan). In this analysis method, tetrazolium salt Wst-8 is degraded by reduced form nicotinamide adenine dinucleotide (nicotinamide adenine dinucleotide H; NADH). The activity of NADH is maintained only inside viable cells, and Wst-8 becomes colored upon degradation. The optical absorbance at 450 nm is measured, whereby the number of viable cells can be indirectly estimated.
(§3) Each cell line was placed on a 96-well microtiter plate at a cell density of 2500 to 5000 cells/100 μL/well in accordance with the growth rate of the cell line. After cell cultivation for 24 hours, […] medium containing each compound was added. The final concentration of each test compound is 0, 0.1, 0.25, 0.5, 1, 2.5, 5, 10, 25, 50, and 100 μM (11 levels). The maximum final concentration of DMSO used as a solvent was 1%. After culturing for 96 hours, the medium was aspirated away, followed by washing with PBS. Next, 100 μL of a medium containing a solution of Cell Counting Kit 8 at 1/10 (v/v) was added. Culturing was then continued for one hour. Thereafter, each optical absorbance at 450 nm (620 nm background) was measured with an MPR-A4i microplate reader (Tosoh, Japan). A curve of the inhibition of cell growth was constructed using the measured optical absorbances.
(Tetrazolium dyes change colour on reduction, which living cells bring about.)

For the next data set, the system named is DLD-1 cells. Described as above. The data set is classed as cell-based. The settings on record: Homo sapiens, DLD-1 colon cancer cells. As for the experimental part: as §1, §2, §3
The subject of the next data set is HCT116 cells. The data set is described as above. The data set is classed as cell-based. Particulars: Homo sapiens, HCT-116, HCT116 colon cancer cells. On the procedure:
as §1, §2, §3

Another data set concerns colon-cancer cells. Kind of data set: Growth inhibition compared with anti-cancer agents 5-FU, CPT11, CDDP (FIG. 6). In kind it is cell-based, human. As for the experimental part: as §1, §3
Stored solutions of three anti-cancer agents: 5-FU, CDDP, and CPT11, prepared beforehand (1 mM), were suitably diluted prior to use, and also added to culture media.

For data set [1], the system named is cell lines derived from stomach, lung, breast, ovarian, prostate, pancreatic, bile duct, thyroid cancer and melanoma. Kind of data set: Growth inhibition compared with 5-FU, CPT11, CDDP in cell lines of other cancers (FIG. 6). The settings on record: cell lines from a variety of other cancers. The data set is classed as cell-based, human. As for the experimental part:
as §1
as §3, with “After culturing for 96 hours, the medium was aspirated away, followed by washing with PBS. Next, 100 μL of a medium containing a solution of Cell Counting Kit 8 at 1/10 (v/v) was added. Culturing was then continued for one hour.” left out, “absorbances. […]” for “absorbances.”

Another data set relates to β-catenin. Kind of data set: Western blot of β-catenin degrading activity. In kind it is cell-based, human. The settings on record: FIG. 9. On the procedure:
Western-blot analysis was used to investigate effects on the expression of oncogene products, ErbB2, c-Myc, and Cyclin D1, whose activity is enhanced in a variety of cancer cells, and to investigate the activity of degrading β-catenin, which plays an important role in the initial stages of carcinogenesis to the formation and development of tumors.
(§4) Western-blot analysis was performed in the following manner:
(§5) After HCT116 cells were treated with each test compound, plate-adhered cells were recovered along with cells suspended in supernatants, centrifuged, and pelleted. The cells were then lysed with a lysis solution (40 mM Tris-HCl, 1% Triton X-100, 2 mM MgCl2) supplemented with 200-μM phenylmethanesulfonyl fluoride (PMSF), 500-μM benzamidine, and 1-μg/mL leupeptin. After the mixture was allowed to stand on ice for 30 minutes, it was centrifuged for 10 minutes at 4° C. and 10000×g, and supernatants were recovered. To the resultant supernatant was added equimolarly 2× sample buffer (0.1 M Tris-HCl (pH 6.8), 4% SDS, 20% glycerol, and 12% β-mercaptoethanol), and the mixture was shaken for 3 minutes at 4° C., then heated to 95° C. for 4 minutes, and then stored at −20° C. until use. The cell lysates were phoresed on 8% SDS-PAGE, transferred to a Hybond-P membrane (Amersham Biosciences), and made to react with various monoclonal antibodies described below.
(§6) Monoclonal antibodies: anti-actin antibody (A2066, Sigma Aldrich), anti-β-catenin antibody (6101 53, BD-transduction Laboratories), anti-p53 antibody (FL393: sc-6243HRP), anti-cyclin D1 antibody (M-20: sc-718), anti-c-Myc antibody (9E10: sc-40), anti-k-Ras-2B antibody (C-19: sc-521), and anti-c-ErbB2 antibody (A0485, DAKO Cytomation).

The test system of data set [2] is A431, ACHN, and HepG2 cells. Description: Growth inhibition compared with conventional anti-cancer agents (FIG. 6). The data set is classed as cell-based, human. As for the experimental part: as §1
as §3, with “After culturing for 96 hours, the medium was aspirated away, followed by washing with PBS. Next, 100 μL of a medium containing a solution of Cell Counting Kit 8 at 1/10 (v/v) was added. Culturing was then continued for one hour.” left out, “absorbances. […]” for “absorbances.”

The next data set has as its system Apc580D mice. Description: Survival in familial adenomatous polyposis mouse model. The data set is classed as in vivo. The text has this:
Familial adenomatous polyposis (FAP) is the most appropriate model for considering the multistage process of carcinogenesis in colon cancer. The APC gene is a causative gene in this illness. This gene is a tumor suppressor gene and is linked to the degradation of the β-catenin gene product. The FAP mouse model Aoc580D (Apc580D/+mice, wherein a mutation was introduced into the mouse Apc gene by homologous genetic recombination) is heterozygous for a genetic mutation in which codon 580 of the APC gene is a stop codon (i.e., the Apc gene product is truncated at codon 580). These mice present hundreds of polyps in the gastrointestinal tract in the same manner as human FAP. […] Reference: Shibata H. et al., Science, 278, pp. 120-123 “Rapid colorectal adenoma formation initiated by conditional targeting of the Apc gene,” 1997.
Analysis was performed on therapeutic models (in which administration was initiated around the age of 8 weeks, when polyposis had already been observed) and prophylactic models (in which administration was initiated around the age of 4 weeks, when polyposis had not been observed) of carcinogenesis in the colon. Apc580D mice (2 animals) given daily an oral intake of HFD35 alone at a dose of 5 g were used as a control.

The subject of another data set is C57BL/6J mice. Kind of data set: In vivo toxicity, mixed feed in high-fat diet. On the set-up: species or system mouse. The settings on record: oral, 0.1% (w/w) in high-fat diet HFD35, 5 mg/day, more than 120 days. On the procedure:
The synthetic compounds of the present invention are derived from curcumin, which is originally a food item. […] As a further test for in vivo toxicity, inbred C57BL/6J mice received daily an oral intake of 5 g of mixed feed (test compound dose: 5 mg/day) wherein each test compound was admixed at 0.1% (weight/weight) with a high-fat diet (HFD35, CLEA Japan).

In the next data set the test system is p53. Kind of data set: Western blot of p53 gene product expression. The data set is classed as cell-based, human. The settings on record: FIG. 11. On the procedure: as §4, §5, §6
Curcumin is known to have activity in degrading p53 gene products. Degradation, genetic expression reduction, instability, or other deficiencies of the tumor suppressor gene p53 gene products, result in disadvantageous conditions as concerns cell malignancy and tendency to become cancerous.
On the technique in general: A western blot detects proteins with antibodies after separation by electrophoresis.

For data set [3], the system named is primary cultured hepatic cells (hNHeps). Description: Toxicity test on normal cells. The data set is classed as cell-based. The settings on record: FIG. 13.

`O=C(/C=C/c1cc(O)cc(O)c1)/C=C/c1cc(O)cc(O)c1` (hydrate or solvate) [GO-Y038, (1E,4E)-1,5-bis-(3,5-dihydroxyphenyl)penta-1,4-dien-3-one]: the melting point is 298 to 300 °C (dec.).
On to `COc1cc(Br)cc(/C=C/C(=O)/C=C/c2cc(Br)cc(OC)c2)c1` [GO-033, (1E,4E)-1,5-bis-(3-bromo-5-methoxyphenyl)penta-1,4-dien-3-one], for which the melting point lay within 181 to 183 °C.
Still for that read-out and setting: for `O=C(/C=C/c1ccc2ccccc2c1)/C=C/c1ccc2ccccc2c1` [GO-Y011, (1E,4E)-1,5-dinaphthalen-2-yl-penta-1,4-dien-3-one] the value was 244 to 246 °C.
On to `COc1cc(/C=C/C(=O)/C=C/c2cc(OC)c(OC)c(OC)c2)cc(OC)c1OC` [GO-Y016, (1E,4E)-1,5-bis-(3,4,5-trimethoxyphenyl)penta-1,4-dien-3-one], for which the half-maximal inhibitory concentration (IC50) came out at 200 nM with SW620 cells, 250 nM in the data set on DLD-1 cells and 250 nM in the data set with HCT116 cells. Besides, in the data set with colon-cancer cells, the “growth inhibitory activity relative to 5-FU, CPT11 and CDDP” value is recorded as “much stronger”. In addition, the “anti-cancer activity relative to 5-FU, CPT11, and CDDP” value in data set [1] is reported as “strong anti-cancer activity”. Moreover, the “β-catenin-degrading activity compared with BDMPP” value with β-catenin was “not”. Also, in data set [2], the “effect relative to conventional anti-cancer agents” value is listed as “do not exert biological effects surpassing conventional anti-cancer agents”.
Consider `COc1ccc(/C=C/C(=O)/C=C/c2ccc(OC)c(O)c2)cc1O` [GO-Y023, (1E,4E)-1,5-bis-(3-hydroxy-4-methoxyphenyl)penta-1,4-dien-3-one], for which the melting point is 195 to 197 °C.
For the compound `COc1cc(/C=C/C(=O)/C=C/c2cc(OC)c(O)c(OC)c2)cc(OC)c1O` [GO-Y026, (1E,4E)-1,5-bis-(4-hydroxy-3,5-dimethoxyphenyl)penta-1,4-dien-3-one], the melting point is 166 to 168 °C.
In the data set on SW620 cells, `COCOc1c(OC)cc(/C=C/C(=O)/C=C/c2cc(OC)c(OCOC)c(OC)c2)cc1OC` [GO-Y031, (1E,4E)-1,5-bis-(3,5-dimethoxy-4-methoxymethoxyphenyl)penta-1,4-dien-3-one] showed an IC50 of 500 nM. The same compound yielded an IC50 with DLD-1 cells of 250 nM. In the data set on HCT116 cells, half-maximal inhibition (IC50) required 250 nM. Besides, in the data set on Apc580D mice (oral 5 mg/day in HFD35, started around 4 weeks of age), the “average survival, anti-carcinogenically prophylactic model (still alive)” value is recorded as at least 110.0 days. In the data set with Apc580D mice (oral 5 mg/day in HFD35, started around 8 weeks of age, average where several mice), the “survival time, therapeutic model” value is 148.0 days. The “growth inhibitory activity relative to 5-FU, CPT11 and CDDP” value in the data set on colon-cancer cells is given as “much stronger”. In the data set with C57BL/6J mice, the “bodily abnormalities including weight loss” value was “No bodily abnormalities, including weight loss, were observed”. Also, in the data set with p53, the “expression of p53 after 30 hours” value is “enhanced expression of p53” and the “transient drop in expression of p53 6 to 12 hours after administration” value is “not seen”. The “anti-cancer activity relative to 5-FU, CPT11, and CDDP” value in data set [1] is recorded as “strong anti-cancer activity”. In addition, in the data set with β-catenin, the “concentration at which β-catenin degrading activity is displayed” value came out at 1 µM and the “β-catenin-degrading activity compared with BDMPP” value is “equal to or greater than that of BDMPP”. Besides, in data set [2], the “effect relative to conventional anti-cancer agents” value was “do not exert biological effects surpassing conventional anti-cancer agents”. Also, in data set [3], the “cytotoxicity to normal cells” value is reported as “non-cytotoxic” and the “growth inhibition on normal cells” value was “no growth inhibition was observed”.
With `COCCOCOc1c(OC)cc(/C=C/C(=O)/C=C/c2cc(OC)c(OCOCCOC)c(OC)c2)cc1OC` [GO-Y039, (1E,4E)-1,5-bis-(3,5-dimethoxy-4-methoxyethoxymethoxyphenyl)penta-1,4-dien-3-one], the melting point lay in the range of 61 to 63 °C.
Consider `COc1cc(/C=C/C(=O)/C=C/c2cc(OC)c(OCCO)c(OC)c2)cc(OC)c1OCCO` [GO-Y044, (1E,4E)-1,5-bis-[4-(2-hydroxyethoxy)-3,5-dimethoxyphenyl]penta-1,4-dien-3-one], for which the melting point was in the range of 133 to 135 °C.
In turn, `C#CCOc1c(OC)cc(/C=C/C(=O)/C=C/c2cc(OC)c(OCC#C)c(OC)c2)cc1OC` [GO-Y048, (1E,4E)-1,5-bis-(3,5-dimethoxy-4-prop-2-ynyloxyphenyl)penta-1,4-dien-3-one] had a melting point of 162 to 164 °C.
Compound `C#CCOc1c(OC)cc(/C=C/C(=O)/C=C/c2cc(OC)c(OC)c(OC)c2)cc1OC` [GO-Y060, (1E,4E)-1-(3,5-dimethoxy-4-prop-2-ynyloxyphenyl)-5-(3,4,5-trimethoxyphenyl)penta-1,4-dien-3-one] returned a melting point of 118 to 120 °C.
For `COc1cc(/C=C/C(=O)/C=C/c2cc(OC)c(OCCN=[N+]=[N-])c(OC)c2)cc(OC)c1OCCN=[N+]=[N-]` [GO-Y065, (1E,4E)-1,5-bis-[4-(2-azidoethoxy)-3,5-dimethoxyphenyl]penta-1,4-dien-3-one], the melting point lay in the range of 107 to 109 °C.
